The source of these data is patent US20210115104A1, “AMYLIN ANALOGUES” (Zealand Pharma A/S, priority 2015, published 2021).

By EC50 is commonly meant the midpoint of the concentration-response curve.

*1 amine or outer side, *2 acyl side, *3 side chain or, on linkers, in order; H or OH if unused. Where a SMILES comes first, the peptide text is derived from it. Bridges are numbered along the chain shown (N, C = ends). [ ]: non-standard residue; d: D form. The star is where a group is joined. C20 diacid = O=C(O)CCCCCCCCCCCCCCCCCCC(=O)*; γGlu = O=C(O)[C@H](CCC(=O)[*:2])N[*:1]; Hyp = O=C(O)[C@@H]1C[C@@H](O)CN1; NMeI = CC[C@H](C)[C@H](NC)C(=O)O; Sar = CNCC(=O)O

For this test, the target named is T1, human amylin receptor 3 (hAMYR3), hCTR2 co-expressed with hRAMP3 (Homo sapiens, UniProt O60896+P30988).
T1 construct: expressed in transfected cells
T1 sequence (P30988 25-474): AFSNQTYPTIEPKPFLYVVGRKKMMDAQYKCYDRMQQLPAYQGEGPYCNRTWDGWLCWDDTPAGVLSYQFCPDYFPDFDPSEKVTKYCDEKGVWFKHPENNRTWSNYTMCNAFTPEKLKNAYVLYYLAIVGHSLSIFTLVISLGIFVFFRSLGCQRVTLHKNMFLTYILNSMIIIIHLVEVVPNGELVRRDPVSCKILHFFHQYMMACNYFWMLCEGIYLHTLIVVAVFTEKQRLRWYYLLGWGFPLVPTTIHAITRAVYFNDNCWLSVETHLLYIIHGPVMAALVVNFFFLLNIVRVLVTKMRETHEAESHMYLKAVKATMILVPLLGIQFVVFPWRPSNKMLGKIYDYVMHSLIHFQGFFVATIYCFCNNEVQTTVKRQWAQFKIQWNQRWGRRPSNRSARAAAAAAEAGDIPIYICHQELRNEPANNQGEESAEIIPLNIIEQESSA
T1 sequence (O60896 24-148 partner): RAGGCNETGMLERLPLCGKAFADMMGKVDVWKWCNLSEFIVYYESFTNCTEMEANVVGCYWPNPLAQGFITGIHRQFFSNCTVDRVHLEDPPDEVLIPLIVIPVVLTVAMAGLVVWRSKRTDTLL
In words: hAMYR3 cAMP assay (AlphaScreen) in COS7 cells. Type of test: cell-based. The settings on record: cAMP induction, COS7 cells expressing hAMYR3; Table 1; read-out: hAMYR3 EC50. The source says: The cell line COS7, originating from African Green Monkey kidney fibroblast cells, was used for establishment of the stable cell lines described below. The COS7 cellular background was used due to it being RAMP naïve, and as such it provides the best available system for testing of the monomeric hCTR and different heterodimeric amylin receptor subtypes functionally generated by introduction of the individual RAMPs.
A cell line expressing the human amylin receptor 3 (hAMYR3) was generated in the COS7 cellular background as stable clones. In brief, hCTR2 (GI:4502547) and hRAMP3 (GI:118572586) were amplified by PCR using primers encoding terminal restriction sites for subcloning. The 5′-end primers additionally encoded a near Kozak consensus sequence to ensure efficient translation. The fidelity of the DNA encoding the receptor was confirmed by DNA sequencing. The PCR products encoding the receptor were subcloned into a proprietary tri-cistronic mammalian expression vector with RAMP3, hCTR2 and neomycin (G418) resistance marker. The mammalian expression vector encoding the receptor was transfected into COS7 cells by a standard liposome transfection method. 48 hours post-transfection, cells were seeded for limited dilution cloning and selected with 1 mg/ml G418 in the culture medium. After 3 weeks, surviving colonies of hAMY3R-expressing cells were picked, propagated and tested in the amylin efficacy assay as described in Example 3 below. The functional generation of the amylin receptor phenotype was verified in the efficacy assay by a left-shifted efficacy response to amylin relative to monomeric calcitonin receptor, and one hAMYR3-expressing clone was chosen for compound profiling.
In vitro activity of test peptides at the hCTR2 and hAMYR3 receptors was assessed by measuring the induction of cAMP following stimulation of the receptor using the AlphaScreen® cAMP Assay kit from Perkin-Elmer.
Briefly, COS7 cells expressing hCTR2 (see Example 2, above) were seeded at 30-40,000 cells per well in 96-well microtiter plates coated with 0.01% poly-L-lysine, and grown for 1 day in culture in 100 μl growth medium [DMEM, 10% FCS, Penicillin (100 IU/ml), Streptomycin (100 μg/ml)]. On the day of analysis, growth medium was removed and the cells were washed once with 200 μl Tyrode buffer [Tyrode's Salts (9.6 g/I), 10 mM HEPES, pH 7.4]. Cells were incubated in 100 μl Tyrode buffer containing increasing concentrations of test peptides, 100 µM IBMX and 0.1% casein for 15 min at 37° C. The reaction was stopped by carefully decanting off the compound/buffer medium and replacing it with lysis/detection buffer (80 μl 0.1% w/v BSA, 5 mM HEPES, 0.3% v/v Tween-20 in deionized water). After incubation at room temperature for 10 min., the cAMP content of the resulting cell lysate was estimated according to the AlphaScreen® cAMP Assay manufacturer's instructions. EC50 values were estimated by computer-aided curve fitting using the 4-parameter logistic (4PL) non-linear model.
Background: cAMP levels reflect the balance of adenylyl cyclase and phosphodiesterase activity.
Turning to `CC[C@H](C)[C@@H](C(=O)N[C@@H](CC(C)C)C(=O)N[C@@H](CO)C(=O)N[C@@H](CO)C(=O)N[C@H](C(=O)N[C@@H](CC(=O)O)C(=O)N[C@H](C(=O)NCC(=O)N[C@@H](CO)C(=O)N[C@@H](CC(=O)O)C(=O)N[C@H](C(=O)N1CCC[C@H]1C(N)=O)[C@@H](C)O)C(C)C)[C@@H](C)O)N(C)C(=O)[C@H](C)NC(=O)CN(C)C(=O)[C@H](Cc1ccccc1)NC(=O)[C@H](CO)NC(=O)[C@H](CO)NC(=O)[C@H](CCCNC(=N)N)NC(=O)[C@@H](NC(=O)[C@H](CC(C)C)NC(=O)[C@H](Cc1ccccc1)NC(=O)[C@H](Cc1c[nH]cn1)NC(=O)[C@H](C)NC(=O)[C@H](CC(C)C)NC(=O)[C@H](CCCNC(=N)N)NC(=O)[C@H](CC(=O)O)NC(=O)[C@@H](NC(=O)[C@H](C)NC(=O)[C@@H]1CSSC[C@H](NC(=O)[C@H](CCCNC(=N)N)NC(=O)CC[C@H](NC(=O)CCCCCCCCCCCCCCCCCCC(=O)O)C(=O)O)C(=O)N2CCC[C@H]2C(=O)N[C@@H]([C@@H](C)O)C(=O)N[C@@H](C)C(=O)N[C@@H]([C@@H](C)O)C(=O)N1)[C@@H](C)O)C(C)C` [Compound 23, [19CD]-isoGlu-R-C( )-PTAT-C( )-ATDRLAHFLVRSSF-Gly(Me)-A-Ile(Me)-LSSTDVGSDTP-NH2] ({C20 diacid-γGlu}-RCPTATCATDRLAHFLVRSSF[Sar]A[NMeI]LSSTDVGSDTP-NH2; disulfide 2-7), the 50% effective concentration (EC50) came out at 130 pM.

With `CC[C@H](C)[C@@H](C(=O)N[C@@H](CC(C)C)C(=O)N[C@@H](CO)C(=O)N[C@@H](CO)C(=O)N[C@H](C(=O)N[C@@H](CC(=O)O)C(=O)N[C@H](C(=O)NCC(=O)N[C@@H](CO)C(=O)N[C@@H](CC(N)=O)C(=O)N[C@H](C(=O)N1CCC[C@H]1C(N)=O)[C@@H](C)O)C(C)C)[C@@H](C)O)N(C)C(=O)[C@H](C)NC(=O)CN(C)C(=O)[C@H](Cc1ccccc1)NC(=O)[C@H](CO)NC(=O)[C@H](CO)NC(=O)[C@H](CCCNC(=N)N)NC(=O)[C@H](Cc1c[nH]cn1)NC(=O)[C@H](CC(C)C)NC(=O)[C@H](Cc1ccccc1)NC(=O)[C@H](Cc1c[nH]cn1)NC(=O)[C@H](C)NC(=O)[C@H](CC(C)C)NC(=O)[C@H](CCCNC(=N)N)NC(=O)[C@H](CC(=O)O)NC(=O)[C@@H](NC(=O)[C@H](C)NC(=O)[C@@H]1CSSC[C@H](NC(=O)[C@H](CCCNC(=N)N)NC(=O)CC[C@H](NC(=O)CCCCCCCCCCCCCCCCCCC(=O)O)C(=O)O)C(=O)N2CCC[C@H]2C(=O)N[C@@H]([C@@H](C)O)C(=O)N[C@@H](C)C(=O)N[C@@H]([C@@H](C)O)C(=O)N1)[C@@H](C)O` [Compound 25, [19CD]-isoGlu-R-C( )-PTAT-C( )-ATDRLAHFLHRSSF-Gly(Me)-A-Ile(Me)-LSSTDVGSNTP-NH2] ({C20 diacid-γGlu}-RCPTATCATDRLAHFLHRSSF[Sar]A[NMeI]LSSTDVGSNTP-NH2; disulfide 2-7), the half-maximal effective concentration (EC50) came to 94 pM.

As to `CC[C@H](C)[C@@H](C(=O)N[C@@H](CC(C)C)C(=O)N[C@@H](CO)C(=O)N[C@@H](CO)C(=O)N[C@H](C(=O)N[C@@H](CCC(=O)O)C(=O)N[C@H](C(=O)NCC(=O)N[C@@H](CO)C(=O)N[C@@H](CCC(=O)O)C(=O)N[C@H](C(=O)N1CCC[C@H]1C(N)=O)[C@@H](C)O)C(C)C)[C@@H](C)O)N(C)C(=O)[C@H](C)NC(=O)CN(C)C(=O)[C@H](Cc1ccccc1)NC(=O)[C@H](CO)NC(=O)[C@H](CO)NC(=O)[C@H](CCCNC(=N)N)NC(=O)[C@H](Cc1c[nH]cn1)NC(=O)[C@H](CC(C)C)NC(=O)[C@H](Cc1ccccc1)NC(=O)[C@H](Cc1c[nH]cn1)NC(=O)[C@H](C)NC(=O)[C@H](CC(C)C)NC(=O)[C@H](CCCNC(=N)N)NC(=O)[C@H](CCC(=O)O)NC(=O)[C@@H](NC(=O)[C@H](C)NC(=O)[C@@H]1CSSC[C@H](NC(=O)[C@H](CCCNC(=N)N)NC(=O)CC[C@H](NC(=O)CCCCCCCCCCCCCCCCCCC(=O)O)C(=O)O)C(=O)NCC(=O)N[C@@H]([C@@H](C)O)C(=O)N[C@@H](C)C(=O)N[C@@H]([C@@H](C)O)C(=O)N1)[C@@H](C)O` [Compound 26, [19CD]-isoGlu-R-C( )-GTAT-C( )-ATERLAHFLHRSSF-Gly(Me)-A-Ile(Me)-LSSTEVGSETP-NH2] ({C20 diacid-γGlu}-RCGTATCATERLAHFLHRSSF[Sar]A[NMeI]LSSTEVGSETP-NH2; disulfide 2-7), the 50% effective concentration (EC50) turned out to be 120 pM. The value for `CC[C@H](C)[C@@H](C(=O)N[C@@H](CC(C)C)C(=O)N[C@@H](CO)C(=O)N[C@@H](CO)C(=O)N[C@H](C(=O)N[C@@H](CCC(=O)O)C(=O)N[C@H](C(=O)NCC(=O)N[C@@H](CO)C(=O)N[C@@H](Cc1ccccc1)C(=O)N[C@H](C(=O)N1C[C@H](O)C[C@H]1C(N)=O)[C@@H](C)O)C(C)C)[C@@H](C)O)N(C)C(=O)[C@H](C)NC(=O)CN(C)C(=O)[C@H](Cc1ccccc1)NC(=O)[C@H](CO)NC(=O)[C@H](CO)NC(=O)[C@H](CCCNC(=N)N)NC(=O)[C@@H](NC(=O)[C@H](CC(C)C)NC(=O)[C@H](Cc1ccccc1)NC(=O)[C@H](CC(=O)O)NC(=O)[C@H](C)NC(=O)[C@H](CC(C)C)NC(=O)[C@H](CCCNC(=N)N)NC(=O)[C@H](CCC(=O)O)NC(=O)[C@@H](NC(=O)[C@H](C)NC(=O)[C@@H]1CSSC[C@H](NC(=O)[C@H](CCCNC(=N)N)NC(=O)CC[C@H](NC(=O)CCCCCCCCCCCCCCCCCCC(=O)O)C(=O)O)C(=O)NCC(=O)N[C@@H]([C@@H](C)O)C(=O)N[C@@H](C)C(=O)N[C@@H]([C@@H](C)O)C(=O)N1)[C@@H](C)O)[C@@H](C)O` [Compound 42, [19CD]-isoGlu-R-C( )-GTAT-C( )-ATERLADFLTRSSF-Gly(Me)-A-Ile(Me)-LSSTEVGSFT-Hyp-NH2] ({C20 diacid-γGlu}-RCGTATCATERLADFLTRSSF[Sar]A[NMeI]LSSTEVGSFT[Hyp]-NH2; disulfide 2-7) was 340 pM.
